Results from patent publication US9085603B2, “Progesterone receptor antagonists” (Bayer Intellectual Property GmbH, priority 2010, dated 2015).

Each molecule was assayed against T1, human progesterone receptor A (Homo sapiens, UniProt P06401) (assay: Progesterone receptor antagonistic effect in stably transfected SK-N-MC cells, MTV-LUC reporter (PR-A)). Details: antagonism of 0.1 nmol/l promegestone, luciferase reporter, 24 hours.
T1 construct: expressed in transfected cells; host or cells: SK-N-MC human neuroblastoma cells, stably transfected with pRChPR-A-neo and pMMTV-LUC
T1 sequence (P06401 1-769 isoform P06401-2): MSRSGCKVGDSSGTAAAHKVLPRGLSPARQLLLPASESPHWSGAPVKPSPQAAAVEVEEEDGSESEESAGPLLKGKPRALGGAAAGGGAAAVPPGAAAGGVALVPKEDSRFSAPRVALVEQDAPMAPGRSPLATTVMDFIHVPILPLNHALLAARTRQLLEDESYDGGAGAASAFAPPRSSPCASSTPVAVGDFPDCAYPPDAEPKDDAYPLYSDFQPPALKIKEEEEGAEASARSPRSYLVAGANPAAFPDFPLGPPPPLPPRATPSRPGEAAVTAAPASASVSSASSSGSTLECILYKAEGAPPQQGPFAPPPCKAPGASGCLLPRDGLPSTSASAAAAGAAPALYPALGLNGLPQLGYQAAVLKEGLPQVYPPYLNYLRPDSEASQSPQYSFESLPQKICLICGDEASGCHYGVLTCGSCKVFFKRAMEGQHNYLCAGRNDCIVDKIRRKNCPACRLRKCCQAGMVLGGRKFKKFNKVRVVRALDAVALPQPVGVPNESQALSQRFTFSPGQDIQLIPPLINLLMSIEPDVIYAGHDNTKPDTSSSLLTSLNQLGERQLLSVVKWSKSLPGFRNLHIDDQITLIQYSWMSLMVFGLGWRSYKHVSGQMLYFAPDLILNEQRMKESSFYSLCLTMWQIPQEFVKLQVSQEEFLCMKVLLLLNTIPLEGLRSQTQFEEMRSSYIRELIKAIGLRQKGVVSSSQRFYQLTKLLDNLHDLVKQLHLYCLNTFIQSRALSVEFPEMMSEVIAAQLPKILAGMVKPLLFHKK
Format: cell-based
Protocol: Progesterone Receptor Antagonistic Effect in Stable Transfectants of Human Neuroblastoma Cells (SK-N-MC cells) with the Human Progesterone A or Progesterone B Receptor and a MTV-LUC Reporter Construct
SK-N-MC cells (human neuroblastoma cells), which have been stably transfected with plasmids which express the human progesterone receptor B (pRChPR-B-neo) or the human progesterone receptor A (pRChPR-A-neo) and a reporter construct (pMMTV-LUC), were incubated for 24 hours either in the absence (negative control) or in the presence of increasing amounts of the particular test compound (0.01 nmol/l, 0.1 nmol/l, 1 nmol/l, 10 nmol/l, 100 nmol/l and 1 μmol/l) in order to determine the agonistic efficacy. As a positive control of the reporter gene induction, the cells were treated with the synthetic gestagen promegestone (0.01 nmol/l, 0.1 nmol/l, 1 nmol/l, 10 nmol/l, 100 nmol/l and 1 μmol/l). To determine the antagonistic activity, the cells were treated with 0.1 nmol/l of promegestone and additionally with increasing amounts of the particular test compound (0.01 nmol/l, 0.1 nmol/l, 1 nmol/l, 10 nmol/l, 100 nmol/l and 1 μmol/l). The activity of the reporter gene LUC (LUC=luciferase) was determined in the cell lysates and measured as RLU (relative light units). All measurement values are given as percentage efficacy and as EC50 or IC50 concentrations.

| Compound | IC50 [nM] |
| --- | --- |
| C[C@]12C[C@H](c3ccc(CNc4ccc(S(N)(=O)=O)cc4)cc3)C3=C4CCC(=O)C=C4CC[C@H]3[C@@H]1CC[C@@]2(O)C(F)(F)C(F)(F)F [Example 18, 4-({4-[(11β,17β)-17-Hydroxy-3-oxo-17-(pentafluoroethyl)estra-4,9-dien-11-yl]benzyl}amino)benzenesulphonamide] | 0.51 |
| C[C@]12C[C@H](c3ccc(CNc4cccnc4)cc3)C3=C4CCC(=O)C=C4CC[C@H]3[C@@H]1CC[C@@]2(O)C(F)(F)C(F)(F)F [Example 19, (11β,17β)-17-Hydroxy-17-(pentafluoroethyl)-11-{4-[(pyridin-3-ylamino)methyl]phenyl}estra-4,9-dien-3-one] | 0.94 |
| C[C@]12C[C@H](c3ccc(CNc4ccccc4)cc3)C3=C4CCC(=O)C=C4CCC3C1CC[C@@]2(O)C(F)(F)C(F)(F)F (stereo partly drawn) [Example 20, (11β,17β)-11-[4-(Anilinomethyl)phenyl]-17-hydroxy-17-(pentafluoroethyl)estra-4,9-dien-3-one] | 1.64 |
| COc1ccccc1NCc1ccc([C@H]2C[C@@]3(C)[C@@H](CC[C@@]3(O)C(F)(F)C(F)(F)F)[C@@H]3CCC4=CC(=O)CCC4=C32)cc1 [Example 21, (11β,17β)-17-Hydroxy-11-(4-{[(2-methoxyphenyl)amino]methyl}phenyl)-17-(pentafluoroethyl)estra-4,9-dien-3-one] | 6.06 |
| COc1cccc(NCc2ccc([C@H]3C[C@@]4(C)[C@@H](CC[C@@]4(O)C(F)(F)C(F)(F)F)[C@@H]4CCC5=CC(=O)CCC5=C43)cc2)c1 [Example 22, (11β,17β)-17-Hydroxy-11-(4-{[(3-methoxyphenyl)amino]methyl}phenyl)-17-(pentafluoroethyl)estra-4,9-dien-3-one] | 2.52 |
| C[C@]12C[C@H](c3ccc(CNc4ccc(Cl)cc4)cc3)C3=C4CCC(=O)C=C4CCC3C1CC[C@@]2(O)C(F)(F)C(F)(F)F (stereo partly drawn) [Example 23, (11β,17β)-11-(4-{[(4-Chlorophenyl)amino]methyl}phenyl)-17-hydroxy-17-(pentafluoroethyl)estra-4,9-dien-3-one] | 2.07 |
| CCN(CC)Cc1ccc([C@H]2C[C@@]3(C)C(CC[C@@]3(O)C(F)(F)C(F)(F)F)C3CCC4=CC(=O)CCC4=C32)cc1 (stereo partly drawn) [Example 24, (11β,17β)-11-{4-[(Diethylamino)methyl]phenyl}-17-hydroxy-17-(pentafluoroethyl)estra-4,9-dien-3-one] | 51 |
| C[C@]12C[C@H](c3ccc(CN4CCN(c5ccccc5)CC4)cc3)C3=C4CCC(=O)C=C4CC[C@H]3[C@@H]1CC[C@@]2(O)C(F)(F)C(F)(F)F [Example 25, (11β,17β)-17-Hydroxy-17-(pentafluoroethyl)-11-{4-[(4-phenylpiperazin-1-yl)methyl]phenyl}estra-4,9-dien-3-one] | 3.06 |
| CN(Cc1ccncc1)Cc1ccc([C@H]2C[C@@]3(C)[C@@H](CC[C@@]3(O)C(F)(F)C(F)(F)F)[C@@H]3CCC4=CC(=O)CCC4=C32)cc1 [Example 26, (11β,17β)-17-Hydroxy-11-(4-{[methyl(pyridin-4-ylmethyl)amino]methyl}phenyl)-17-(pentafluoroethyl)estra-4,9-dien-3-one] | 4.65 |
| CN(C)CCN(C)Cc1ccc([C@H]2C[C@@]3(C)C(CC[C@@]3(O)C(F)(F)C(F)(F)F)C3CCC4=CC(=O)CCC4=C32)cc1 (stereo partly drawn) [Example 27, (11β,17β)-11-[4-({[2-(Dimethylamino)ethyl](methyl)amino}methyl)phenyl]-17-hydroxy-17-(pentafluoroethyl)estra-4,9-dien-3-one] | 3.52 |
| COC(=O)c1ccccc1NCc1ccc([C@H]2C[C@@]3(C)[C@@H](CC[C@@]3(O)C(F)(F)C(F)(F)F)[C@@H]3CCC4=CC(=O)CCC4=C32)cc1 [Example 28, Methyl 2-({4-[(11β,17β)-17-hydroxy-3-oxo-17-(pentafluoroethyl)estra-4,9-dien-11-yl]benzyl}amino)benzoate] | 5.05 |
| COC(=O)c1ccc(NCc2ccc([C@H]3C[C@@]4(C)[C@@H](CC[C@@]4(O)C(F)(F)C(F)(F)F)[C@@H]4CCC5=CC(=O)CCC5=C43)cc2)cc1 [Example 29, Methyl 4-({4-[(11β,17β)-17-hydroxy-3-oxo-17-(pentafluoroethyl)estra-4,9-dien-11-yl]benzyl}amino)benzoate] | 1.19 |
| C[C@]12C[C@H](c3ccc(CN4CCc5ccccc5C4)cc3)C3=C4CCC(=O)C=C4CCC3C1CC[C@@]2(O)C(F)(F)C(F)(F)F (stereo partly drawn) [Example 30, (11β,17β)-11-[4-(3,4-Dihydroisoquinolin-2(1H)-ylmethyl)phenyl]-17-hydroxy-17-(pentafluoroethyl)estra-4,9-dien-3-one] | 2.35 |
| C[C@]12C[C@H](c3ccc(CN4CCN(Cc5ccccc5)CC4)cc3)C3=C4CCC(=O)C=C4CCC3C1CC[C@@]2(O)C(F)(F)C(F)(F)F (stereo partly drawn) [Example 31, (11β,17β)-11-{4-[(4-Benzylpiperazin-1-yl)methyl]phenyl}-17-hydroxy-17-(pentafluoroethyl)estra-4,9-dien-3-one] | 4.52 |
| C[C@]12C[C@H](c3ccc(CNc4ccc(C(N)=O)cc4)cc3)C3=C4CCC(=O)C=C4CC[C@H]3[C@@H]1CC[C@@]2(O)C(F)(F)C(F)(F)F [Example 32, 4-({4-[(11β,17β)-17-Hydroxy-3-oxo-17-(pentafluoroethyl)estra-4,9-dien-11-yl]benzyl}amino)benzamide] | 0.78 |
| CN(CCc1ccccc1)Cc1ccc([C@H]2C[C@@]3(C)[C@@H](CC[C@@]3(O)C(F)(F)C(F)(F)F)[C@@H]3CCC4=CC(=O)CCC4=C32)cc1 [Example 33, (11β,17β)-17-Hydroxy-11-(4-{[methyl(2-phenylethyl)amino]methyl}phenyl)-17-(pentafluoroethyl)estra-4,9-dien-3-one] | 5.57 |
| C[C@]12C[C@H](c3ccc(CN4CCN(CCc5ccccc5)CC4)cc3)C3=C4CCC(=O)C=C4CC[C@H]3[C@@H]1CC[C@@]2(O)C(F)(F)C(F)(F)F [Example 34, (11β,17β)-17-Hydroxy-17-(pentafluoroethyl)-11-(4-{[4-(2-phenylethyl)piperazin-1-yl]methyl}phenyl)estra-4,9-dien-3-one] | 5.55 |
| C[C@]12C[C@H](c3ccc(CN4CCN(c5cnccn5)CC4)cc3)C3=C4CCC(=O)C=C4CC[C@H]3[C@@H]1CC[C@@]2(O)C(F)(F)C(F)(F)F [Example 35, (11β,17β)-17-Hydroxy-17-(pentafluoroethyl)-11-(4-{[4-(pyrazin-2-yl)piperazin-1-yl]methyl}phenyl)estra-4,9-dien-3-one] | 0.68 |
| C[C@]12C[C@H](c3ccc(CN4CCN(CCN5CCCC5)CC4)cc3)C3=C4CCC(=O)C=C4CC[C@H]3[C@@H]1CC[C@@]2(O)C(F)(F)C(F)(F)F [Example 36, (11β,17β)-17-Hydroxy-17-(pentafluoroethyl)-11-[4-({4-[2-(pyrrolidin-1-yl)ethyl]piperazin-1-yl}methyl)phenyl]estra-4,9-dien-3-one] | 33.7 |
| C[C@]12C[C@H](c3ccc(CN4CCN(Cc5ccncc5)CC4)cc3)C3=C4CCC(=O)C=C4CC[C@H]3[C@@H]1CC[C@@]2(O)C(F)(F)C(F)(F)F [Example 37, (11β,17β)-17-Hydroxy-17-(pentafluoroethyl)-11-(4-{[4-(pyridin-4-ylmethyl)piperazin-1-yl]methyl}phenyl)estra-4,9-dien-3-one] | 2.33 |
